Reference: publication PMC9223267, “Serine hydroxymethyltransferase as a potential target of antibacterial agents acting synergistically with one-carbon metabolism-related inhibitors” (Communications Biology, 2022)
Values joined by “and” are separate entries in the source; they are usually repeats but may differ in a detail not shown here. Equal values may be shown once. Read-outs that look alike come from different tables or passages of the source.

Experiments:
E. faecium [1] = experiment: Antibacterial activity evaluation (turbidity, OD600); format: cell-based, Enterococcus faecium (JCM5804); conditions: Enterococcus faecium
Protocol: (§1) E. faecium and E. faecalis were diluted to turbidity equivalents that matched 1.0 McFarland (McF) standard in distilled water (S. aureus and E. coli were also diluted to 0.5 McF), and additionally diluted 1:200 in Mueller–Hinton (MH) broth. The designated concentrations of the tested compounds were prepared by ten-fold serial dilutions directly in 96-well microtiter plates (IWAKI, Shizuoka, Japan), as previously described. […] The other compounds were serially diluted from 20 μM downwards (final concentration, 10 μM). […] Positive control wells included bacteria without any compound, and the negative control wells only contained MH broth. […] The optical density at 600 nm (OD600) was measured using a GloMax microtiter plate reader (Promega, WI, USA), and the EC50 values of each test compound and standard error were calculated by Microsoft Excel function, AVERAGE and STDEV/SQRT.

E. faecalis = experiment: as above; format: cell-based, Enterococcus faecalis (JCM7783); conditions: Enterococcus faecalis, E. faecalis JCM7783
Protocol: as §1

S. aureus = experiment: as above; format: cell-based, Staphylococcus aureus (ATCC29213); conditions: Staphylococcus aureus, S. aureus ATCC29213
Protocol: as §1

E. coli = experiment: as above; format: cell-based, Escherichia coli (ATCC25922); conditions: Escherichia coli, E. coli ATCC25922
Protocol: as §1

E. faecium [2] = experiment: Antibacterial assay with an excess concentration of biomolecules (Ser, Gly, inosine, dT, FA); format: cell-based, Enterococcus faecium (JCM5804); conditions: Enterococcus faecium, JCM5804, E. faecium JCM5804
Protocol: as §1
The ratio of the control EC50 (no competitors added) to the experimental EC50 (competitors added) was calculated for each test substance.

efmSHMT [3] = format: binding, Enterococcus faecium; conditions: DSF; final drug concentration 50 μM
Protocol: Protein samples were prepared as 20 μL aliquots containing 0.1 mg/mL protein (efmSHMT/ecSHMT), 1 μL of the ligand in DMSO (final drug concentration, 50 μM) and 2% or 4% SYPRO Orange (Invitrogen, MA, USA). […] Melting points were evaluated as the half-point of the maximum intensity of each curve.

efmSHMT [4] = biological target: efmSHMT (Enterococcus faecium, UniProt I3U4H4, M1V); experiment: biochemical; format: binding; conditions: 5 μM efmSHMT, 10 mM Gly and 100 μM Ser
Protocol: After adding Me-THF, the efmSHMT solution was incubated for 30 min at room temperature. The optical density at 500 and 600 nm (OD500 and OD600) were then measured using a nanodrop spectrophotometer[24],[25]. OD600 was used as the background. After detection, each concentration of inhibitor was added to the efmSHMT solution and incubated for 30 min at room temperature. OD500 and OD600 were measured. The relative OD500 intensity was calculated as relative OD500 = (OD500 – OD600)/(MAXOD500 – OD600), where MAXOD500 is the average OD500 value in the presence of 1000, 2000 and 4000 μM Me-THF without inhibitors. […] Here, IC50 is the concentration of inhibitor added to the efmSHMT solution and [Me-THF] is the EC50 in the presence of the inhibitor concentration. [EC50 without inhibitor] is the EC50 of Me-THF in the absence of the inhibitor.

E. faecium [5] = experiment: Bacterial viability assay (Microbial Viability Assay Kit-WST, OD450); format: cell-based, Enterococcus faecium; conditions: for Relative bacterial viability: single values
Protocol: Living E. faecium were determined using the Microbial Viability Assay Kit-WST (DOJINDO, Tokyo, Japan). […] Positive control wells included bacteria seeded into MH broth without compounds, and the negative control wells contained MH broth only. […] Five microlitres of the colouring reagent were added to each well of the 96-well plate every 2 h after starting incubation with each compound.

Caski cells = experiment: Cell cytotoxicity assay (Cell Counting Kit-8, 5 days); format: cell-based, human; conditions: with each cell line (Caski, Hep-2 and Calu-3)
Protocol: After serial dilution, 100 μL of FBS-containing medium including the cells was added to each well of the plate. […] All CC50 determining assays were conducted in duplicate or triplicate[39],[40].

[6] = read-out: pEC50 ± S.E. (converted)
[7] = 1 mM Inosine, read-out: pEC50 ± S.E. (converted)
[8] = 1 mM deoxythymidine, read-out: EC50
[9] = 1 mM deoxythymidine, read-out: pEC50 ± S.E. (converted)
[10] = 10 mM Glycine, read-out: pEC50 ± S.E. (converted)
[11] = 100 mM Serine, read-out: pEC50 ± S.E. (converted)
[12] = 0.1 M folate, read-out: pEC50 ± S.E. (converted)

efmSHMT (Enterococcus faecium, UniProt I3U4H4, M1V), sequence (I3U4H4 whole entry M1V): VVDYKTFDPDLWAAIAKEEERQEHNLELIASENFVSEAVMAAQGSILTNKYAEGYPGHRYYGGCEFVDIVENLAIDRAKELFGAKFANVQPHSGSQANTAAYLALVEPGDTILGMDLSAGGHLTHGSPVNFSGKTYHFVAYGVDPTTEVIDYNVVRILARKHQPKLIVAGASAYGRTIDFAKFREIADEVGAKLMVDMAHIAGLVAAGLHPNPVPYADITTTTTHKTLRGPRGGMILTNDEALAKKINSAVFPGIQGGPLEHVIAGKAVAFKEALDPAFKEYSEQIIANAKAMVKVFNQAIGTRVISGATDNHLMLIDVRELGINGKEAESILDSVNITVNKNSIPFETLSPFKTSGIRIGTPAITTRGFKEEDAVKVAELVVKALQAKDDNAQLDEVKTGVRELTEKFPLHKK

Structure (SMILES)	EC50 (E. faecalis; read-out: EC50) [nM]	EC50 (E. faecalis; [6]) [nM]	EC50 (S. aureus; read-out: EC50) [nM]	EC50 (S. aureus; [6]) [nM]	EC50 (E. coli; read-out: EC50) [nM]	EC50 (E. coli; [6]) [nM]	EC50 (E. faecium [2]; [7]) [nM]	EC50 (E. faecium [2]; [8]) [nM]	EC50 (E. faecium [2]; [9]) [nM]	EC50 (E. faecium [2]; 10 mM Glycine, read-out: EC50) [nM]	EC50 (E. faecium [2]; [10]) [nM]	EC50 (E. faecium [2]; 100 mM Serine, read-out: EC50) [nM]	EC50 (E. faecium [2]; [11]) [nM]	EC50 (E. faecium [2]; 0.1 M folate, read-out: EC50) [nM]	EC50 (E. faecium [2]; [12]) [nM]	further results
Nc1nc2[nH]cc(CCc3ccc(C(=O)N[C@@H](CCC(=O)O)C(=O)O)cc3)c2c(=O)[nH]1 [PMX, pemetrexed]	> 100000	> 100000	> 100000	> 100000	> 100000	> 100000	0.0794	> 100000	> 100000	0.062	0.0631	0.25	0.251	1800	2000	EC50 (E. faecium [1]; JCM5804, E. faecium JCM5804, read-out: EC50): 0.052 nM; EC50 (E. faecium [1]; JCM5804, E. faecium JCM5804, read-out: pEC50 ± S.E. (converted)): 0.0501 nM; EC50 (E. faecium [2]; 1 mM Inosine, read-out: EC50): 0.074 nM; ΔTm (thermal stability of efmSHMT) (efmSHMT [3]): 0.9 °C; Ki (efmSHMT [4]; Ki, Cheng-Prusoff): 117000 nM; Ki (efmSHMT [4]; pKi ± pSE): 126000 nM
COc1cc(Cc2cnc(N)nc2N)cc(OC)c1OC [TMP, trimethoprim]	270	251	290	316	170	158	2.51	54000	50100	2.1	2	3.3	3.16	41	50.1	EC50 (E. faecium [1]; E. faecium JCM5804, read-out: EC50): 2.8 nM; EC50 (E. faecium [1]; E. faecium JCM5804, read-out: pEC50 ± S.E. (converted)): 2.51 nM; Relative bacterial viability (E. faecium [5]; 2 nM, 0 hours): 0.02108 and 0.02214 and 0.02363 and 0.02319 and 0.01396 and 0.01461 and 0.0211 and 0.02201; Relative bacterial viability (E. faecium [5]; 2 nM, 2 hours): 0.03256 and 0.03276 and 0.0358 and 0.03793 and 0.02817 and 0.0276 and 0.03152 and 0.02983; Relative bacterial viability (E. faecium [5]; 2 nM, 8 hours): 0.6778 and 0.6938 and 0.7383 and 0.6754 and 0.6268 and 0.6594 and 0.6905 and 0.6243; Relative bacterial viability (E. faecium [5]; 2 nM, 10 hours): 0.7078 and 0.7215 and 0.7487 and 0.6774; Relative bacterial viability (E. faecium [5]; 2 nM, 12 hours): 0.7931 and 0.8524 and 0.8435 and 0.6543 and 0.7061 and 0.7294 and 0.7396 and 0.7126; Relative bacterial viability (E. faecium [5]; 2 nM, 14 hours): 0.8722 and 0.7867 and 0.9195 and 0.9126 and 0.8033 and 0.8796 and 0.8243 and 0.8853; Relative bacterial viability (E. faecium [5]; 20 nM, 0 hours): 0.02896 and 0.02213 and 0.01772 and 0.01904 and 0.02117 and 0.02218 and 0.02462 and 0.0192; Relative bacterial viability (E. faecium [5]; 20 nM, 2 hours): 0.03873 and 0.03054 and 0.0347 and 0.03215 and 0.02983 and 0.02843 and 0.03279 and 0.02955; Relative bacterial viability (E. faecium [5]; 20 nM, 4 hours): 0.0705 and 0.06896 and 0.0607 and 0.07039 and 0.05304 and 0.06167 and 0.06352 and 0.06901; Relative bacterial viability (E. faecium [5]; 20 nM, 6 hours): 0.09036 and 0.1064 and 0.1059 and 0.1127 and 0.1209 and 0.1443 and 0.152 and 0.1417; Relative bacterial viability (E. faecium [5]; 20 nM, 8 hours): 0.1279 and 0.1203 and 0.1189 and 0.109 and 0.09529 and 0.09698 and 0.1178 and 0.11; Relative bacterial viability (E. faecium [5]; 20 nM, 10 hours): 0.1127 and 0.1159 and 0.1045 and 0.09171 and 0.08771 and 0.09868 and 0.1124 and 0.1197; Relative bacterial viability (E. faecium [5]; 20 nM, 12 hours): 0.09851 and 0.09831 and 0.1104 and 0.1131 and 0.09658 and 0.1085 and 0.1167 and 0.1091; EC50 (E. faecium [5]; Enterococcus faecium, relative bacterial viability after 14 h incubation): 8.8 nM; selectivity index (S.I.): CC50 against each cell line / EC50 against E. faecium (Caski cells): high bacterial selectivity
